Reference: patent publication US20060165739A1, “Alcohol-free microemulsion composition” (Mary Kay Inc., priority 2005, published 2006)
Where two headings read alike, the source gives them in different places.

Key:
Assay type in all cases: physicochemical
[1] = Fish diagram phase study: surfactant concentration (C) and sebum fraction in oil (F) where Type IV microemulsion forms; settings: co-oil with artificial sebum, WOR=1
Protocol: Methods: Phase behavior studies were performed using equal volume of water and oil (or sebum/co-oil mixtures), giving a water/oil ratio (WOR) equal to one. Preliminary studies were conducted to determine preferred formulations and salinity. […] In another non-limiting aspect, a preferred salinity (S*) for this composition was 0.5% NaCl. As noted throughout this document and contemplated by the inventors, these concentrations can be varied. Additionally, the ingredients can also vary. For example, the surfactants, hydrophobic and hydrophilic linkers, co-oils, and hydrotropes that are discussed throughout this document and known to those of ordinary skill in the art can be used with the present invention. Stock solutions of AOT, hexylglucocide, and sorbitan monooleate at the selected weight ratio were prepared at different total surfactant/linker concentrations ranging from 14.19% to 56.06% wt. The phase studies were carried out in 16×125 mm flat-bottomed tubes; 2.5 mL surfactant solution was added, followed by the addition of co-oil, then sebum oil. The total volume of co-oil and sebum oil required is equivalent to the amount of water present in the 2.5 mL surfactant solution; this is to keep WOR equal to one. The fraction of sebum oil in the oil mixtures is varied from zero (100% vol. co-oil) to one (100% vol. sebum oil). The prepared samples were gently shaken once a day for 3 days and left to equilibrate at room temperature for 2 weeks. Phase diagrams (fish diagrams) were constructed by plotting the total surfactant/linker concentration as a function of the sebum fraction in oil. The microemulsion phase (Type I, II, III, and IV) were obtained by visual observation. The effect of salinity (0.5%, 1.5%, and 3% wt. NaCl) and co-oil on the phase behavior was investigated. The fish tail is observed in the high concentration regime whereas the fish body appears in the low concentration regime. A surfactant concentration 14.19% wt was studied. As discussed throughout this document, however, the surfactant concentration can be varied. At lower surfactant concentrations, slow phase separation kinetics made it difficult to map out the three phase region. The surfactant concentration and the sebum fraction of oil at which the body and tail of the fish meet are denoted by “C” and “F”, respectively. The concentration C for this system, approximately, is 25% wt. surfactant concentration at the fraction F of 0.4, as summarized in Table 4.

[2] = Equivalent alkane carbon number (EACN) of co-oils
Text: (§1) Formulating microemulsions requires the combination of variables that will provide a middle phase microemulsion. Salager et al. (1979) proposed a semi empirical equation that relates the different formulation variables: Ln(S*)=k(EACN)+f(A)−σ+αTΔT Where S* is an optimum salinity, or electrolyte concentration; k is a constant, normally, between 0.1 to 0.17, and EACN is the equivalent alkane carbon number for nonlinear hydrocarbon (e.g. triglycerides). Although preferred salinity concentrations may exist, the inventors contemplate that salinity levels can and will vary. For example, a person of ordinary skill in the art will recognize that salinity levels may vary depending on the desired effects of a given product, protocol, or individual characteristics of a user of the product. For linear hydrocarbon, alkane carbon number (ACN) is applied. The EACN is estimated based on the optimum salinity obtained in the inventors' formulation studies. The higher the optimum salinity, the more the hydrophobicity or EACN of the oil. The effect of alcohol or additives is noted by f(A), σ is a function of the type of the surfactant, α is a constant, and T is the temperature of the system. However, in this study, alcohol is not included and the temperature of the system is constant.
The EACN of squalene is 24 and isopropyl myristate (IPM) is 13. The EACN for squalane is expected to be close to the value for squalene (˜24).

[3] = Optimum salinity (S*) of co-oil/sebum oil mixtures in phase behavior studies with the AOT/sorbitan monooleate/hexylglucocide system; settings: NaCl
Protocol: Methods: Phase behavior studies were performed using equal volume of water and oil (or sebum/co-oil mixtures), giving a water/oil ratio (WOR) equal to one. Preliminary studies were conducted to determine preferred formulations and salinity. […] In another non-limiting aspect, a preferred salinity (S*) for this composition was 0.5% NaCl. As noted throughout this document and contemplated by the inventors, these concentrations can be varied. Additionally, the ingredients can also vary. For example, the surfactants, hydrophobic and hydrophilic linkers, co-oils, and hydrotropes that are discussed throughout this document and known to those of ordinary skill in the art can be used with the present invention.
Stock solutions of AOT, hexylglucocide, and sorbitan monooleate at the selected weight ratio were prepared at different total surfactant/linker concentrations ranging from 14.19% to 56.06% wt. The phase studies were carried out in 16×125 mm flat-bottomed tubes; 2.5 mL surfactant solution was added, followed by the addition of co-oil, then sebum oil. The total volume of co-oil and sebum oil required is equivalent to the amount of water present in the 2.5 mL surfactant solution; this is to keep WOR equal to one. The fraction of sebum oil in the oil mixtures is varied from zero (100% vol. co-oil) to one (100% vol. sebum oil). The prepared samples were gently shaken once a day for 3 days and left to equilibrate at room temperature for 2 weeks. Phase diagrams (fish diagrams) were constructed by plotting the total surfactant/linker concentration as a function of the sebum fraction in oil. The microemulsion phase (Type I, II, III, and IV) were obtained by visual observation. The effect of salinity (0.5%, 1.5%, and 3% wt. NaCl) and co-oil on the phase behavior was investigated.
as §1

[4] = oil mixture 20% co-oil / 80% sebum (vol.)
[5] = oil mixture 40% co-oil / 60% sebum
[6] = oil mixture 60% co-oil / 40% sebum
[7] = oil mixture 80% co-oil / 20% sebum

Structure (SMILES) | Concentration (C) of surfactant at which Type IV microemulsion forms ([1]; [NaCl] 0.50%) | sebum fraction in oil (F) at which Type IV microemulsion forms ([1]; [NaCl] 0.50%) | sebum fraction in oil (F) at which Type IV microemulsion forms ([1]; [NaCl] 0.50%, listed as squalene) | EACN [2] | S* (optimum salinity) ([3]; 100% co-oil / 0% sebum) | S* (optimum salinity) [3, 4] | S* (optimum salinity) ([3]; oil mixture 20% co-oil / 80% sebum (vol.), listed as Isopropyl Myristate (IPM)) | S* (optimum salinity) [3, 5] | S* (optimum salinity) [3, 6] | S* (optimum salinity) [3, 7] | Concentration (C) of surfactant at which Type IV microemulsion forms ([1]; [NaCl] 1.50%) | sebum fraction in oil (F) at which Type IV microemulsion forms ([1]; [NaCl] 1.50%) | Concentration (C) of surfactant at which Type IV microemulsion forms ([1]; [NaCl] 3.00%) | sebum fraction in oil (F) at which Type IV microemulsion forms ([1]; [NaCl] 3.00%) | EACN ([2]; listed as Ethyllaurate (EL))
CC(C)=CCC/C(C)=C/CC/C(C)=C/CC/C=C(\C)CC/C=C(\C)CCC=C(C)C [Squalene] | ~25 % wt. | 0.45 | 0.4 | 24 |  |  |  |  |  |  |  |  |  |  | 
CCCCCCCCCCCCCC(=O)OC(C)C [IPM, isopropyl myristate] | 25 % wt. | 0.5 |  | 13 | 3.5% | less than 0.5% | <0.5% | 0.5% | 0.8% | 1.5% | 38 % wt. | 0.175 |  |  | 
CC(C)CCCC(C)CCCC(C)CCCCC(C)CCCC(C)CCCC(C)C (centres unmarked) [Squalane, 2,6,10,15,19,23-Hexamethyltetracosane] | 25 % wt. | 0.35 |  |  |  |  |  |  |  |  | 35 % wt. | 0.2 | 42 % wt. | 0.15 | 
CCCCCCCCCCCC(=O)OCC [EL, ethyl laurate] | 25 % wt. | 0.4 |  | < 13 | 1-1.5% | <0.5% |  | <0.5% | <0.5% | 0.5-0.7% | 38 % wt. | 0.02 |  |  | <13
